Experimental data: US12590062B2, “PD-1/PD-L1 inhibitors” (Gilead Sciences, Inc., priority 2017, dated 2026)

Legend:
[1] = target: PD-1/PD-L1 (Homo sapiens, UniProt Q9NZQ7); experiment: PD-1/PD-L1 biochemical protein-protein interaction assay (ALPHA); format: binding; details: 0.3 nM His tagged PD-L1, 2.5 nM biotinylated Fc-PD-1, 60 minutes at 25° C., read-out: IC50 PD-L1-PD-1 Alpha IC50-mono PD-L1-fcP-D1
Procedure, shortened: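 Compounds are tested for blocking the PD-1/PD-L1 extracellular-domain interaction using an ALPHA bead assay, in which inhibition lowers the luminescent signal. Reactions run 60 min at 25° C with 0.3 nM His-PD-L1 and 2.5 nM biotinylated Fc-PD-1. IC50 values come from four-parameter fits.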

[2] = target: T1, PD-1/PD-L1 interaction (Homo sapiens, UniProt Q9NZQ7); experiment: PD-1/PD-L1 NFAT reporter co-culture assay; format: cell-based; details: Jurkat PD-1 NFAT-luciferase cells co-cultured with aAPC-PD-L1 CHO cells, 6 hrs at 37° C.; read-out: EC50 NFAT Luciferase
T1 construct: expressed in transfected cells; host or cells: CHO cells (aAPC-PD-L1) co-cultured with Jurkat cells overexpressing PD-1 and an NFAT-luciferase reporter
T1 sequence (Q9NZQ7 19-290): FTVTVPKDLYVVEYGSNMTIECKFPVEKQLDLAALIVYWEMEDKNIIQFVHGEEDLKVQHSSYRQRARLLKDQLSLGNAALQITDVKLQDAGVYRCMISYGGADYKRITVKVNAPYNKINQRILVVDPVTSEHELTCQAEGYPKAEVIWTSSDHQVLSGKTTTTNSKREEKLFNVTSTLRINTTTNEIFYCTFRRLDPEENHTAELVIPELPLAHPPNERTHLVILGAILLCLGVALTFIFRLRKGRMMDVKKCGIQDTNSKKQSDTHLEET
Procedure, shortened: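 CHO aAPC-PD-L1 seeded overnight; PD-1/NFAT-luc Jurkat + cpd in RPMI 1640, 2% FBS added at once; 6 h, 37 °C; ONE-Glo luminescence; EC50, 4-parameter fit.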

[3] = target: T2, PD-L1 (Homo sapiens, UniProt Q9NZQ7); experiment: PD-L1/PD-L1 dimerization biochemical protein-protein interaction assay (ALPHA); format: binding; details: compound-induced PD-L1 dimerization, head prints '1 nM' (0.5 nM His-tagged PD-L1 and 0.5 nM FLAG-tagged PD-L1), read-out: AC50 PDL1 Dimer Alpha 1 nM
T2 construct: determine if they can specifically dimerize the extracellular domains of PD-L1
T2 sequence (Q9NZQ7 19-238 limits assumed): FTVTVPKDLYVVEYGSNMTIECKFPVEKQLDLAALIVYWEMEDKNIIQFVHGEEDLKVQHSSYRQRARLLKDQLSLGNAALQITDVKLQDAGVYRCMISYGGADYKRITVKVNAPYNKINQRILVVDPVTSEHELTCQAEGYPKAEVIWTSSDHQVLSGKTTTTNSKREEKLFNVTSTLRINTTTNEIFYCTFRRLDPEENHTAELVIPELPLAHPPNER
T2 sequence (Q9NZQ7 19-238 limits assumed): as above
Procedure, shortened: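 ALPHA proximity assay of compound-induced dimerization of 0.5 nM His-tagged and 0.5 nM FLAG-tagged PD-L1 extracellular domains in Hepes pH 7.4 buffer, 2 h at 25 °C. Anti-His acceptor then anti-FLAG donor beads, 60 min each; AC50 from four-parameter fit.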

Chain of PD-1/PD-L1 (Q9NZQ7 19-238 limits assumed): as above

SMILES | IC50 [1] | EC50 [2] | AC50 [3]
COc1nc(O[C@H]2CCc3c(-c4cccc(-c5ccc(CNC[C@@H]6CCC(=O)N6)c(Cl)c5)c4Cl)cccc32)c(Br)cc1CNC[C@@H]1CCC(=O)N1 [Example 791] | 2.84 nM | 175 nM | 206 nM
COc1nc(O[C@H]2CCc3c(-c4cccc(-c5cnc6c(CN7CC8(CNC(=O)C8)C7)cn(C)c6n5)c4Cl)cccc32)c(Cl)cc1CN1CC[C@@H](C(=O)O)C1 [Example 525] | 0.064 nM | 27 nM | 34.8 nM
Cc1c(COc2cc(OCc3cncc(C#N)c3)c(CN[C@@](C)(CO)C(=O)O)cc2Cl)cccc1-c1cccc(-c2ccc3c(c2)ncc(=O)n3CCN(C)C)c1C [Example 469] | 0.064 nM | 125 nM | 73.5 nM
COc1nc(-c2cccc(-c3cccc(-c4ccc5ncc(CNCCO)n5c4)c3Cl)c2Cl)ccc1CNCCO [Example 620] | 2.84 nM | ≥ 50000 nM | ≥ 10000 nM
COc1nc(-c2cccc(-c3cccc4c3CC[C@@H]4Oc3nc(OCc4cncc(C#N)c4)c(CN[C@@](C)(CO)C(=O)O)cc3Br)c2Br)ccc1CNC[C@@H]1CCC(=O)N1 [Example 699] | 0.12 nM | 136 nM | 24.7 nM
N#Cc1cncc(COc2nc(OCc3cccc(-c4cccc(-c5ccc(OCCNCCO)cc5)c4Cl)c3Cl)c(Cl)cc2CNC[C@@H](O)CC(=O)O)c1 [Example 561] | 0.531 nM | 146 nM | 193 nM
COc1cc(-c2cccc(-c3cccc(COc4nc(OC)c(CNC[C@@H]5CCC(=O)N5)cc4Br)c3Cl)c2Cl)ccc1CNC[C@@H]1CCC(=O)N1 [Example 542] | 1.24 nM | 197 nM | 136 nM
Cc1c(COc2cc(OCc3cncc(C#N)c3)c(CNC[C@@H](O)CC(=O)O)cc2Cl)cccc1-c1cccc(-c2ccc(CN(C)C)cc2)c1C [Example 383, (S)-4-((5-chloro-2-((5-cyanopyridin-3-yl)methoxy)-4-((4″-((dimethylamino)methyl)-2,2′-dimethyl-[1,1′:3′,1″-terphenyl]-3-yl)methoxy)benzyl)amino)-3-hydroxybutanoic acid] | 0.252 nM | 467 nM | 157 nM
N#Cc1cncc(COc2cc(OCc3cccc(-c4cccc(COc5cc(OCc6cncc(C#N)c6)c(CNC[C@@H](O)CC(=O)O)cc5Cl)c4Br)c3Br)c(Cl)cc2CNC[C@@H](O)CC(=O)O)c1 [Example 479] | 0.098 nM | 45 nM | 348 nM
COc1nc(-c2cccc(-c3cccc4c3CC[C@@H]4Oc3nc(OC)c(CN4C[C@H](C(=O)O)[C@@H](C(C)C)C4)cc3Cl)c2Cl)ccc1CNC[C@@H]1CCC(=O)N1 [Example 760] | 0.064 nM | 63 nM | 44.2 nM
Cc1c(COc2cc(OCc3cncc(C(=O)O)c3)c(CN[C@@](C)(CO)C(=O)O)cc2Cl)cccc1-c1cccc(-c2ccc(OCCN3CC[C@@H](O)C3)cc2)c1C [Example 522] | 0.064 nM | 195 nM | 74.3 nM
COc1nc(Oc2cccc(-c3cccc(-c4ccc(CNC[C@@H]5CCC(=O)N5)c(OC)n4)c3Cl)c2Cl)ccc1CNC[C@@H]1CCC(=O)N1 [Example 428] | 1.37 nM | 282 nM | 525 nM
N#Cc1cncc(COc2nc(OCc3cccc(-c4cccc(-c5ccc6c(c5)C[C@@H](N)C6)c4Cl)c3Cl)c(Br)cc2CNC[C@@H](O)CC(=O)O)c1 [Example 552] | 0.716 nM | 152 nM | 74.7 nM
Cc1c(COc2cc(OCc3cncc(C#N)c3)c(CNC[C@@H](O)CC(=O)O)cc2Cl)cccc1-c1cccc(-c2ccc3c(c2)CC(NCC(=O)O)C3)c1C (stereo partly drawn) [Example 474] | 0.064 nM | 59 nM | 137 nM
COc1nc(-c2csc(-c3cccc(-c4ccc(CNC[C@@H]5CCC(=O)N5)c(OC)n4)c3Cl)c2)ccc1CNC[C@@H]1CCC(=O)N1 [Example 597, (S)-5-((((6-(2-chloro-3-(4-(6-methoxy-5-(((((S)-5-oxopyrrolidin-2-yl)methyl)amino)methyl)pyridin-2-yl)thiophen-2-yl)phenyl)-2-methoxypyridin-3-yl)methyl)amino)methyl)pyrrolidin-2-one] | 1.26 nM | 231 nM | 310 nM
Cc1c(COc2cc(OCc3cncc(C#N)c3)c(CNC[C@@H](O)CC(=O)O)cc2Cl)cccc1-c1cccc(-c2cn(C3CCNCC3)nn2)c1C [Example 330, (S)-4-((5-chloro-2-((5-cyanopyridin-3-yl)methoxy)-4-((2,2′-dimethyl-3′-(1-(piperidin-4-yl)-1H-1,2,3-triazol-4-yl)-[1,1′-biphenyl]-3-yl)methoxy)benzyl)amino)-3-hydroxybutanoic acid] | 0.188 nM | 1640 nM | 209 nM
COc1nc(-c2cccc(-c3cccc(-c4cnc5c(CNC[C@H]6CCC(=O)N6)cn(C)c5c4)c3Cl)c2Cl)ccc1CNC[C@H]1CCC(=O)N1 [Example 602] | 0.236 nM | 242 nM | 124 nM
COc1cc(-c2cccc(-c3cccc(COc4cc(OCc5cncc(C#N)c5)c(CN[C@@](C)(CO)C(=O)O)cc4Cl)c3C)c2C)ccc1C1=NCCN1 [Example 501] | 0.064 nM | 60 nM | 35.3 nM
COc1nc(-c2cccc(-c3cccc4c3CC[C@@H]4Oc3nc(OC)c(CN4CC5(CCC(=O)N5)C4)cc3Br)c2Cl)ccc1CN1CC2(CCC(=O)N2)C1 [Example 735] | 0.345 nM | 95 nM | 104 nM
Cc1c(COc2cc(OCc3cncc(C#N)c3)c(CN[C@@](C)(CO)C(=O)O)cc2Cl)cccc1-c1cccc(COc2cc(OCc3cncc(C#N)c3)c(CN[C@@](C)(CO)C(=O)O)cc2Cl)c1Br [Example 481] | 0.064 nM | 155 nM | 92.9 nM
N#Cc1cc(C#N)cc(COc2nc(OCc3cccc(-c4cccc(-c5ccc(CNC[C@@H]6CCC(=O)N6)cc5)c4Cl)c3Cl)c(Cl)cc2CNC[C@@H](O)CC(=O)O)c1 [Example 576] | 0.169 nM | 32 nM | 24.3 nM
COc1nc(O[C@H]2CCc3c(-c4cccc(-c5cnc6c(CNC[C@@H]7CCC(=O)N7)cn(C)c6n5)c4Cl)cccc32)c(Cl)cc1CN1CCC[C@@H](C(=O)O)C1 [Example 526] | 0.064 nM | 110 nM | 73.6 nM
Cc1c(COc2cc(OCc3cncc(C#N)c3)c(CN[C@@](C)(CO)C(=O)O)cc2Cl)cccc1-c1cccc(-c2ccc3c(c2)CCC3N2CC(C)C2)c1C (stereo partly drawn) [Example 371, (2S)-2-((5-chloro-2-((5-cyanopyridin-3-yl)methoxy)-4-((2,2′-dimethyl-3′-(1-(3-methylazetidin-1-yl)-2,3-dihydro-1H-inden-5-yl)-[1,1′-biphenyl]-3-yl)methoxy)benzyl)amino)-3-hydroxy-2-methylpropanoic acid] | 0.074 nM | 210 nM | 78 nM
COc1nc(-c2cccc(-c3cccc(-c4ccc5c(CNC[C@@H]6CCC(=O)N6)cccc5c4)c3Cl)c2Cl)ccc1CNC[C@@H]1CCC(=O)N1 [Example 604] | 4.87 nM | 552 nM | 935 nM
Cc1c(COc2cc(OCc3cncc(C#N)c3)c(CNC[C@@H]3CCC(=O)N3)cc2Cl)cccc1-c1cccc(-c2ccc(CNC[C@@H]3CCC(=O)N3)cc2)c1C [Example 497] | 1.43 nM | 182 nM | 302 nM
N#Cc1cc(C#N)cc(COc2nc(OCc3cccc(-c4cccc(-c5ccc(OCCNCCO)cc5)c4Cl)c3Cl)c(Cl)cc2CNC[C@@H](O)CC(=O)O)c1 [Example 351, (S)-4-(((5-chloro-6-((2,2′-dichloro-4″-(2-((2-hydroxyethyl)amino)ethoxy)-[1,1′:3′,1″-terphenyl]-3-yl)methoxy)-2-((3,5-dicyanobenzyl)oxy)pyridin-3-yl)methyl)amino)-3-hydroxybutanoic acid] | 0.982 nM | 235 nM | 168 nM
COc1ccc(-c2cccc(-c3cccc(COc4cc(OCc5cncc(C#N)c5)c(CN[C@@](C)(CO)C(=O)O)cc4Cl)c3C)c2C)cc1CNCC1CCC(=O)N1 (stereo partly drawn) [Example 509] | 0.097 nM | 89 nM | 129 nM
CC(C)(NCc1cc(Cl)c(O[C@H]2CCc3c(-c4cccc(-c5ccc(OCCN6CC[C@@H](O)C6)cc5)c4Cl)cccc32)nc1OCc1cncc(C#N)c1)C(=O)O [Example 667] | 0.064 nM | 1890 nM | 17 nM
C[C@@](CO)(NCc1cc(Cl)c(O[C@H]2CCc3c(-c4cccc(-c5ccc(OCCN6CC[C@@H](O)C6)cc5)c4Cl)cccc32)nc1OCc1cncc(S(C)(=O)=O)c1)C(=O)O [Example 669] | 0.064 nM | 637 nM | 17.2 nM
